Values quoted from earlier work as cited in US20220273652A1, “PHARMACEUTICAL COMPOSITION COMPRISING HMG-COA REDUCTASE INHIBITORS AND FENOFIBRATE” (INTAS PHARMACEUTICALS LTD., priority 2019, published 2022).

Tested on: cytochrome P450
Conditions: human hepatocytes

SMILES: CC(C)c1nc(N(C)S(C)(=O)=O)nc(-c2ccc(F)cc2)c1/C=C/[C@@H](O)C[C@@H](O)CC(=O)O [rosuvastatin, bis[(E)-7-[4(4-fluorophenyl)-6-isopropyl-2-[methyl(methylsulfonyl)amino]-pyrimidin-5-yl](3R,5S)-3,5dihydroxyhept-6-enoic acid]]
- Substrate for cytochrome P450-based metabolism: poor substrate
